Molecular target: T1, Recombinant human thymidylate synthase (hTS) (Homo sapiens, UniProt P04818)
T1 construct: purchased Abcam
Test: Human thymidylate synthase inhibition assay
Format: biochemical
Details: for hTS inhibition: highest concentration tested 20 μM
Description: Recombinant human thymidylate synthase (hTS) was purchased from Abcam. […] 5,10-Methylenetetrahydrofolate (calcium salt) was purchased from Boc Sciences and used without further purification.
The hTS inhibition assays were performed on a BioTek Synergy Neo2 plate reader equipped with a Xenon flash lamp and a photodiode array detector. The hTS reaction was conducted at room temperature in a buffer solution (pH 7.5) containing 50 mM Tris-HCl, 1 mM EDTA, 25 mM MgCl2, and 5 mM HCHO. […] 5,10-Methylenetetrahydrofolate was added last to initiate the reaction. Formation of the co-product, dihydrofolate, was monitored at 340 nm. The absorbance at 340 nm was plotted against the reaction time to calculate the reaction rate (i.e., the slope of the linear fitting). The reaction rates at different inhibitor concentrations were normalized to the reaction rate determined in the absence of inhibitor (100% enzymatic activity). The resulting % enzymatic activity values were plotted against the corresponding log value of the inhibitor concentration to construct concentration-response curves. IC50 values were then calculated using non-linear regression (four-parameter logistic equation, see Equation 1 below) in the GraphPad Prism v.9 software.
Y=Ymin+(Ymax−Ymin)/[1+10^((logIC50−X)×Hill Slope)] Equation 1

T1 sequence (P04818 whole entry): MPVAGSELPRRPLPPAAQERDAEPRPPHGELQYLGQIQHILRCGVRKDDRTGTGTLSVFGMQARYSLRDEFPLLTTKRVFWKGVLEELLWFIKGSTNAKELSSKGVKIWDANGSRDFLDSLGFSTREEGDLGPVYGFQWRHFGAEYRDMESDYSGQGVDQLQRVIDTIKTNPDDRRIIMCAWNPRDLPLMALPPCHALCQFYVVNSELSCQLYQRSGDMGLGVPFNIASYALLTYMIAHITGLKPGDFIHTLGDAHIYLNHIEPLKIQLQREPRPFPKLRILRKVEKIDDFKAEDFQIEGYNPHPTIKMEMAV

| SMILES | hTS inhibition | IC50 (50 μM dUMP, 0.84 μM hTS, five repeats, pH 7.5, room temperature, read-out: IC50 against hTS) [µM] |
| --- | --- | --- |
| C[C@H](OP(=O)(O)O)[C@H]1O[C@@H](n2cc(F)c(=O)[nH]c2=O)C[C@@H]1O [MD-7-112, lithium (S)-1-((2S,3S,5R)-5-(5-fluoro-2,4-dioxo-3,4-dihydropyrimidin-1(2H)-yl)-3-hydroxytetrahydrofuran-2-yl)ethyl phosphate] | inactive | – |
| CC(C)(OP(=O)([O-])[O-])[C@H]1O[C@@H](n2cc(F)c(=O)[nH]c2=O)C[C@@H]1O.[Li+].[Li+] [MD-7-115, lithium 2-((2S,3S,5R)-5-(5-fluoro-2,4-dioxo-3,4-dihydropyrimidin-1(2H)-yl)-3-hydroxytetrahydrofuran-2-yl)propan-2-yl phosphate] | inactive | – |
| C[C@@H](OP(=O)(O)O)[C@H]1O[C@@H](n2cc(F)c(=O)[nH]c2=O)C[C@@H]1O [MD-7-105, lithium (R)-1-((2S,3S,5R)-5-(5-fluoro-2,4-dioxo-3,4-dihydropyrimidin-1(2H)-yl)-3-hydroxytetrahydrofuran-2-yl)ethyl phosphate] | – | 1.21 |

From patent US20240043467A1, “5'-SUBSTITUTED NUCLEOSIDE MONOPHOSPHATES, PRODRUGS THEREOF, AND USES RELATED THERETO” (EMORY UNIVERSITY, priority 2020, published 2024)
